Measurements: patent US10894040B2, “S1P modulating agents” (BIOGEN MA INC., priority 2011, dated 2021)

System: A2B5+ OPCs
Experiment: OPC differentiation assay
Type: cell-based, Sprague Dawley rats
Conditions: 2 micromolar, 3-day incubation; symbols not defined in the patent
Method: OPC Differentiation Assay
Enriched populations of oligodendrocytes were grown from post-natal day 2 (P2) female Sprague Dawley rats. The forebrain was dissected out and placed in Hank's buffered saline solution (HBSS; Invitrogen, Grand Island, N.Y.). The tissue was cut into 1 mm fragments and incubated at 37° C. for 15 minutes in 0.01% trypsin and 10 μg/mL DNase. Dissociated cells were plated on poly-L-lysine-coated T75 tissue culture flasks and grown at 37° C. for 10 days in Dulbecco's modified Eagle's medium (DMEM) with 20% fetal calf serum (Invitrogen). A2B5^+ OPCs were collected by shaking the flask overnight at 200 rpm and 37° C., resulting in a 95% pure population.
For the differentiation assay, 2 μM and 20 μM antagonist or the same concentrations of vehicle (DMSO) were applied to OPCs cultured in CNTF/T3 containing media. After a 3-day incubation, […], cell were lysed and then subjected to MSD (Meso Scale Discovery-R) analysis. EC50 was calculated by Prism using a nonlinear sigmoidal dose-response curvecells. Alternatively, cells were lysed in 80 μL lysis buffer (50 mM HEPES [4-(2-hydroxyethyl)-1-piperazineethanesulfonic acid], pH 7.5, 150 mM NaCl, 1.5 mM MgCl2, 1 mM ethylene glycol tetraacetic acid [EGTA], 1% Triton X-100 and 10% glycerol) for 30 minutes at 4° C. After centrifugation at 14,000 g for 15 minutes, the supernatants were boiled in Laemmli sample buffer, subjected to 4-20% SDS-PAGE, and analyzed by Western blotting with anti-MBP, anti-myelin-associated glycoprotein (MAG), or anti-beta actin antibodies. The secondary antibodies used were anti-mouse IgG-HRP (horseradish peroxidase) and anti-rabbit IgG-HRP respectively.

CC(C)(C)[C@H]1CC[C@H](Oc2ccc3cc(CN4CCCCC4C(=O)O)ccc3c2)CC1 (stereo partly shown) [Example 88, 1-[6-(4-tert-Butyl-cyclohexyloxy)-naphthalen-2-ylmethyl]-piperidine-2-carboxylic acid]
activity in the OPC assay at 2 micromolar: + to ++++
